Where a name gives a salt, the structure may show the parent alone. Read-outs that look alike come from different tables or passages of the source.
Assays:
MKL-2 cells (VP-MCC) = assay: qHTS cell viability (CellTiter-Glo, 72 h; primary and follow-up small molecule screen); type: cell-based, human
NIH-3T3 cells = assay: qHTS cell viability (CellTiter-Glo, 72 h; primary screen), control cell line; type: cell-based, mouse
[1] = tested on: VN-MCC cell lines (MCC13, MCC26, UISO); assay: qHTS cell viability, VN-MCC cell lines as a group (mean AUC, VN.MCC.avg); type: cell-based, human
MCC26 cells (VN-MCC) = assay: qHTS cell viability (CellTiter-Glo, 72 h; primary and follow-up small molecule screen); type: cell-based, human
MKL-1 cells (VP-MCC) = assay: as above; type: cell-based, human
[2] = tested on: six MCC cell lines and four control cell lines; assay: qHTS cell viability, all 10 cell lines screened; type: cell-based
HEK293T cells = assay: qHTS cell viability (CellTiter-Glo, 72 h; primary screen), control cell line; type: cell-based, human
MCC13 cells (VN-MCC) = assay: qHTS cell viability (CellTiter-Glo, 72 h; primary and follow-up small molecule screen); type: cell-based, human
WAGA cells (VP-MCC) = assay: as above; type: cell-based, human
[3] = tested on: VP-MCC cell lines (WAGA, MKL-1, MKL-2); assay: qHTS cell viability, VP-MCC cell lines as a group (mean AUC, VP.MCC.avg); type: cell-based, human
HACAT cells = assay: qHTS cell viability (CellTiter-Glo, 72 h; primary screen), control cell line; type: cell-based, human
UISO cells (VN-MCC) = assay: qHTS cell viability (CellTiter-Glo, 72 h; primary and follow-up small molecule screen); type: cell-based, human
CRL-7250 cells = assay: qHTS cell viability (CellTiter-Glo, 72 h; primary screen), control cell line; type: cell-based
[4] = tested on: control cell lines (HACAT, HEK293T, CRL-7250, NIH-3T3); assay: qHTS cell viability, control cell lines as a group (mean AUC, Control.avg); type: cell-based
[5] = tested on: MCC cell lines (WAGA, MKL-1, MKL-2, MCC13, MCC26, UISO); assay: qHTS cell viability, all six MCC cell lines as a group (mean AUC, MCC.avg); type: cell-based, human
[6] = MIPE library, 11-point DRC, sheet S2E
[7] = MIPE library, 11-point DRC, control cell line, sheet S2E
[8] = MIPE library, Control AUC minus VN-MCC AUC (therapeutic window), sheet S2E
[9] = MIPE library, mean AUC of VN-MCC cell lines, sheet S2E
[10] = MIPE library, Control AUC minus MCC AUC (therapeutic window), sheet S2E
[11] = MIPE library, Control AUC minus VP-MCC AUC (therapeutic window), sheet S2E
[12] = MIPE library, mean AUC of VP-MCC cell lines, sheet S2E
[13] = MIPE library, mean AUC of control cell lines, sheet S2E
[14] = MIPE library, mean AUC of six MCC cell lines, sheet S2E

Question: Which results are given for `C=C1/C(=C\C=C2/CCC[C@]3(C)[C@@H]([C@H](C)/C=C/[C@H](C)C(C)C)CC[C@@H]23)C[C@@H](O)C[C@@H]1O` [1-alpha-Hydroxyergocalciferol]?
Answer: MKL2_AUC (MKL-2 cells (VP-MCC); [6]): 310.498; NIH3T3_AUC (NIH-3T3 cells; [7]): 349.858; Control-VN-MCC [1, 8]: 0.7959; VN-MCC_Avg_AUC [1, 9]: 427.411; MCC26_AUC (MCC26 cells (VN-MCC); [6]): 429.194; MKL1_AUC (MKL-1 cells (VP-MCC); [6]): 338.352; Control-MCC [2, 10]: 67.1615; HEK293T_AUC (HEK293T cells; [7]): 473.524; MCC13_AUC (MCC13 cells (VN-MCC); [6]): 466.906; WAGA_AUC (WAGA cells (VP-MCC); [6]): 235.191; Control-VP-MCC [3, 11]: 133.527; VP-MCC_Avg_AUC [3, 12]: 294.68; HACAT_AUC (HACAT cells; [7]): 470.948; UISO_AUC (UISO cells (VN-MCC); [6]): 386.134; CRL7250_AUC (CRL-7250 cells; [7]): 418.5; Control_Avg_AUC [4, 13]: 428.207; MCC_Avg_AUC [5, 14]: 361.046

Question: Which results are given for `O=C1OC(CCN2CCCCC2)OC1(c1ccccc1)c1ccccc1` (stereo not drawn) [Pipoxolan hydrochloride]?
Answer: MKL2_AUC (MKL-2 cells (VP-MCC); NPC library, qHTS dose-response AUC, MKL2): 392.534; NIH3T3_AUC (NIH-3T3 cells; NPC library, qHTS dose-response AUC, NIH3T3 control): 468.074; VN-MCC_Avg_AUC ([1]; NPC library, mean AUC of VN-MCC cell lines): 450.651; Control-VN-MCC ([1]; NPC library, therapeutic window: Control avg AUC minus VN-MCC avg AUC): 22.7364; MCC26_AUC (MCC26 cells (VN-MCC); NPC library, qHTS dose-response AUC, MCC26): 460.749; MKL1_AUC (MKL-1 cells (VP-MCC); NPC library, qHTS dose-response AUC, MKL1): 437.466; Control-MCC ([2]; NPC library, therapeutic window: Control avg AUC minus MCC avg AUC): 37.5609; HEK293T_AUC (HEK293T cells; NPC library, qHTS dose-response AUC, HEK293T control): 445.369; MCC13_AUC (MCC13 cells (VN-MCC); NPC library, qHTS dose-response AUC, MCC13): 478.552; WAGA_AUC (WAGA cells (VP-MCC); NPC library, qHTS dose-response AUC, WAGA): 433.006; VP-MCC_Avg_AUC ([3]; NPC library, mean AUC of VP-MCC cell lines): 421.002; Control-VP-MCC ([3]; NPC library, therapeutic window: Control avg AUC minus VP-MCC avg AUC): 52.3854; HACAT_AUC (HACAT cells; NPC library, qHTS dose-response AUC, HACAT control): 493.052; UISO_AUC (UISO cells (VN-MCC); NPC library, qHTS dose-response AUC, UISO): 412.652; CRL7250_AUC (CRL-7250 cells; NPC library, qHTS dose-response AUC, CRL7250 control): 487.056; Control_Avg_AUC ([4]; NPC library, mean AUC of control cell lines): 473.388; MCC_Avg_AUC ([5]; NPC library, mean AUC of six MCC cell lines): 435.827

Question: How did the MKL2_AUC (MKL-2 cells (VP-MCC); [6]) turn out when `COc1ccc(C(=O)CC(=O)c2ccc(C(C)(C)C)cc2)cc1` was run?
Answer: 314.76

Question: And the MKL2_AUC (MKL-2 cells (VP-MCC); area under the dose-response curve, MKL-2 cells, AUC<450 = reduced viability)?
Answer: 386.921

Question: What about the NIH3T3_AUC (NIH-3T3 cells; [7]) of the same compound?
Answer: 477.589

Question: What about the NIH3T3_AUC (NIH-3T3 cells; area under the dose-response curve, NIH3T3 control cells, AUC<450 = reduced viability) of the same compound?
Answer: 482.946

Question: What about the Control-VN-MCC [1, 8] of the same compound?
Answer: -9.242

Question: What about the VN-MCC_Avg_AUC [1, 9] of the same compound?
Answer: 469.944

Question: What about the MCC26_AUC (MCC26 cells (VN-MCC); [6]) of the same compound?
Answer: 485.026

Question: What about the MCC26_AUC (MCC26 cells (VN-MCC); area under the dose-response curve, MCC26 cells, AUC<450 = reduced viability) of the same compound?
Answer: 481.864

Question: What about the MKL1_AUC (MKL-1 cells (VP-MCC); [6]) of the same compound?
Answer: 339.212

Question: What about the MKL1_AUC (MKL-1 cells (VP-MCC); area under the dose-response curve, MKL-1 cells, AUC<450 = reduced viability) of the same compound?
Answer: 411.648

Question: What about the Control-MCC [2, 10] of the same compound?
Answer: 65.7381

Question: What about the HEK293T_AUC (HEK293T cells; [7]) of the same compound?
Answer: 472.366

Question: What about the HEK293T_AUC (HEK293T cells; area under the dose-response curve, HEK293T control cells, AUC<450 = reduced viability) of the same compound?
Answer: 465.048

Question: What about the MCC13_AUC (MCC13 cells (VN-MCC); [6]) of the same compound?
Answer: 495.434

Question: And the MCC13_AUC (MCC13 cells (VN-MCC); area under the dose-response curve, MCC13 cells, AUC<450 = reduced viability)?
Answer: 482.294

Question: What about the WAGA_AUC (WAGA cells (VP-MCC); [6]) of the same compound?
Answer: 305.979

Question: What about the WAGA_AUC (WAGA cells (VP-MCC); area under the dose-response curve, WAGA cells, AUC<450 = reduced viability) of the same compound?
Answer: 381.481

Question: And the Control-VP-MCC [3, 11]?
Answer: 140.718

Question: What about the VP-MCC_Avg_AUC [3, 12] of the same compound?
Answer: 319.984

Question: And the HACAT_AUC (HACAT cells; [7])?
Answer: 476.58

Question: What about the HACAT_AUC (HACAT cells; area under the dose-response curve, HACAT control cells, AUC<450 = reduced viability) of the same compound?
Answer: 467.786

Question: And the UISO_AUC (UISO cells (VN-MCC); [6])?
Answer: 429.371

Question: And the UISO_AUC (UISO cells (VN-MCC); area under the dose-response curve, UISO cells, AUC<450 = reduced viability)?
Answer: 482.124

Question: And the CRL7250_AUC (CRL-7250 cells; [7])?
Answer: 416.272

Question: And the CRL7250_AUC (CRL-7250 cells; area under the dose-response curve, CRL7250 control cells, AUC<450 = reduced viability)?
Answer: 453.419

Question: What about the Control_Avg_AUC [4, 13] of the same compound?
Answer: 460.702

Question: And the MCC_Avg_AUC [5, 14]?
Answer: 394.964

Question: Which results are given for `CCCN(CCC)CCc1c[nH]c2ccccc12.Cl` [N,N-Dipropyltryptamine hydrochloride]?
Answer: MKL2_AUC (MKL-2 cells (VP-MCC)): 402.2; NIH3T3_AUC (NIH-3T3 cells): 481.316; Control-VN-MCC [1]: 47.3665; VN-MCC_Avg_AUC [1]: 431.8; MCC26_AUC (MCC26 cells (VN-MCC)): 415.779; MKL1_AUC (MKL-1 cells (VP-MCC)): 391.099; Control-MCC [2]: 58.5875; HEK293T_AUC (HEK293T cells): 447.306; MCC13_AUC (MCC13 cells (VN-MCC)): 455.096; WAGA_AUC (WAGA cells (VP-MCC)): 434.773; Control-VP-MCC [3]: 69.8085; VP-MCC_Avg_AUC [3]: 409.358; HACAT_AUC (HACAT cells): 490.19; UISO_AUC (UISO cells (VN-MCC)): 424.523; CRL7250_AUC (CRL-7250 cells): 497.853; Control_Avg_AUC [4]: 479.166; MCC_Avg_AUC [5]: 420.579

— article PMC11822212, “High-throughput screening identifies Aurora kinase B as a critical therapeutic target for Merkel cell carcinoma” (Nature Communications, 2025)
